{"source": "patent US10570418B2", "about": "“Methods and compositions for RNA-directed target DNA modification” (The Regents of the University of California, priority 2014, dated 2020)", "molecules": {"B1": {"name": "template 5: single-stranded HDR template, 90-nt homology arms, non-complementary orientation (SEQ ID NO:1397) (nucleic acid)", "DNA": "TGGCCAGGGAGTGGCCAGAGTCCAGCTTGGGCCCACGCAGGGGCCTGGCCAGCAGCAAGCAGCACTCTGCCCTCGTGGGTTTGTGGTTGCGGATCCAAGCTTTTGGAGGTGACATCGATGTCCTCCCCATTGGCCTGCTTCGTGGCAATGCGCCACCGGTTGATGTGATGGGAGCCCTTCTTCTTCTGCTCG", "modifications": "Synthetic nucleic acid sequence"}}, "key": {"[1]": {"test_system": "EMX1 locus in HEK293T cells", "assay": "NHEJ frequency by T7 endonuclease I assay, EMX1 locus, HEK293T cells", "assay_type": "cell-based, human", "conditions": "for NHEJ frequency: nocodazole-treated cells (200 ng/ml, 17 h), 50-200 ρmol template 1", "text": "(§1) For EMX1: forward [NT] ID NO:1404) and [NT] NO:1405). For DYRK1: forward [NT] ID NO:1406) and reverse [NT] NO:1407)."}, "[2]": {"test_system": "EMX1 locus in HEK293T cells", "assay": "HDR frequency by HindIII digestion, EMX1 locus, HEK293T cells", "assay_type": "cell-based, human", "conditions": "for HDR efficiency: 50-200 ρmol template 1", "text": "as §1"}, "human ES cells": {"test_system": "human ES cells", "assay": "Cell viability of human ES cells during synchronization", "assay_type": "cell-based", "conditions": "hES cells; aphidicolin treatment after nocodazole, at 10 h"}, "[3]": {"test_system": "DYRK1 locus in HEK293T cells", "assay": "NHEJ frequency by T7 endonuclease I assay, DYRK1 locus, HEK293T cells", "assay_type": "cell-based, human", "conditions": "for NHEJ frequency: nocodazole synchronized cells"}, "[4]": {"test_system": "DYRK1 locus in HEK293T cells", "assay": "HDR frequency by HindIII digestion, DYRK1 locus, HEK293T cells", "assay_type": "cell-based, human", "conditions": "for HDR frequency: nocodazole synchronized cells"}, "[5]": {"test_system": "EMX1 locus in human embryonic stem cells (hES)", "assay": "NHEJ frequency by T7 endonuclease I assay, EMX1 locus, human ES cells", "assay_type": "cell-based", "conditions": "nocodazole synchronization (16 h), 100 ρmol template 4"}, "[6]": {"test_system": "EMX1 locus in human embryonic stem cells (hES)", "assay": "HDR frequency by HindIII digestion, EMX1 locus, human ES cells", "assay_type": "cell-based", "conditions": "nocodazole synchronization (16 h), 30 or 100 ρmol Cas9 RNP, template 4"}, "HEK293T cells": {"test_system": "HEK293T cells", "assay": "FACS analysis of DNA content / cell cycle", "assay_type": "cell-based, human", "conditions": "nocodazole-treated vs untreated cells", "text": "The first objective was to test whether S phase was ideal for HDR in HEK293T cells. The approach was to chemically and reversibly synchronize the cells at G1, S and M phases (FIG. 1A). Lovastatin blocks at early G1 and partially at G2/M phase, by inhibiting HMG-CoA reductase and resulting in the depletion of mevalonate, which is an essential substrate for cholesterol synthesis. Mimosine arrests cells at the G1-S border prior to onset of DNA replication by an unknown mechanism. […] Excess thymidine causes feedback inhibition of deoxycytosine synthesis. Hydroxyurea blocks cells at S phase by decreasing the production of deoxyribonucleotide via inhibition of the enzyme ribonucleotide reductase. Nocodazole inhibits microtubule polymerization which is a signature structural feature as cells enter mitosis, causing arrest at G2/M phase. The drugs effects were confirmed by fluorescence activated cell sorter (FACS) analysis of the cell cycle (FIG. 1B).\nFIG. 1A-1D depict the effect of cell cycle synchronization on NHEJ and HDR frequencies in HEK293T cells. (A) Chemical inhibitors were used to arrest cells at specific phases of cell cycle. Lovastatin (Lov) blocks cells in G1 phase by inhibiting cholesterol synthesis. […] The mean % NHEJ/HDR and standard deviation (error bars) were calculated from three experiments."}, "[7]": {"conditions": "30 ρmol of Cas9, 100 ρmol template 1"}, "[8]": {"conditions": "inhibitor-synchronized cells, 30 ρmol of Cas9, 100 ρmol template 1"}, "[9]": {"conditions": "nocodazole synchronization, 30 ρmol Cas9 RNP, 50 ρmol HDR template"}, "[10]": {"conditions": "30 and 100 ρmol Cas9 RNP, 100 ρmol HDR template 1, inhibitor synchronization before nucleofection"}, "[11]": {"conditions": "100 ρmol of Cas9, 100 ρmol template 1"}, "[12]": {"conditions": "all doses of Cas9 RNP, vs unsynchronized"}}, "note": "Entries after “also recorded” stand apart in the source; their conditions may differ.", "data": [{"molecule": "C[C@@]1(CO)[C@H](O)CC[C@@]2(C)[C@H]1CC[C@H]1C[C@@H]3C[C@@]12CC[C@]3(O)CO", "note": "[aphidicolin]", "values": [{"measurement": "NHEJ frequency compared to the unsynchronized cells", "setting": "[1]; [7]", "value": "increased the NHEJ frequency slightly"}, {"measurement": "HDR frequency", "setting": "[2]; [8]", "value": 15, "unit": "%"}, {"measurement": "HDR frequency with aphidicolin block", "setting": "[2]; nocodazole synchronized, aphidicolin 2 μg/ml added to media immediately after nucleofection, 30 ρmol Cas9 RNP, 50 ρmol template", "value": "significantly reduced"}, {"measurement": "Cell viability", "setting": "human ES cells", "value": "substantial drop in cell viability"}]}, {"molecule": "template 4: single-stranded HDR template, 90-nt homology arms, complementary orientation (DNA GGATCCAAGCTT; single-stranded DNA HDR donor oligonucleotide, chemistry not given here)", "values": [{"measurement": "HDR frequency", "setting": "[2]; [9]", "value": 23, "unit": "%"}]}, {"molecule": "NC(=O)NO", "note": "[hydroxyurea]", "values": [{"measurement": "NHEJ frequency compared to the unsynchronized cells", "setting": "[1]; [10]", "value": "greatly decreased"}, {"measurement": "HDR frequency compared to the unsynchronized cells", "setting": "[2]; [10]", "value": "greatly decreased"}]}, {"molecule": "Cc1cn([C@H]2C[C@H](O)[C@@H](CO)O2)c(=O)[nH]c1=O", "note": "[thymidine]", "values": [{"measurement": "NHEJ frequency compared to the unsynchronized cells", "setting": "[1]; [7]", "value": "slightly reduced"}, {"measurement": "NHEJ frequency compared to the unsynchronized cells (reduced or not)", "setting": "[1]; [11]", "value": "not"}, {"measurement": "HDR frequency compared to the unsynchronized cells", "setting": "[2]; [7]", "value": "slightly reduced"}, {"measurement": "HDR frequency compared to the unsynchronized cells (reduced or not)", "setting": "[2]; [11]", "value": "not"}]}, {"molecule": "template 1: 183-nt single-strand DNA oligonucleotide HDR donor encoding a HindIII site, 90-nt and 55-nt asymmetrical homology arms (DNA CCACCGCTACGAAGCTTGTCATTGGAGGTGACATCGATGTCCTC; single-stranded DNA HDR donor oligonucleotide, chemistry not given here)", "values": [{"measurement": "HDR frequency compared between templates", "setting": "[2]; 30 ρmol Cas9 RNP, 50 ρmol HDR template", "value": "lower HDR frequency than template 3"}]}, {"molecule": "template 3: single-stranded oligonucleotide HDR template with HindIII and BamHI sites, 60-nt homology arms (DNA GGATCCAAGCTT; single-stranded DNA HDR donor oligonucleotide, chemistry not given here)", "values": [{"measurement": "HDR frequency", "setting": "[2]; [9]", "value": 19, "unit": "%"}, {"measurement": "Increase of HDR frequency on extending homology arms from 30 nt to 60 nt", "setting": "[2]; nocodazole synchronization, vs template 2", "value": "four-fold"}]}, {"molecule": "template 7: double-stranded HDR template assembled from two fragments by overlapping PCR of HEK293T genomic DNA (sense AAGCTTGGATCC; antisense GGATCCAAGCTT; DNA, phosphodiester; double-stranded HDR donor assembled by overlapping PCR)", "values": [{"measurement": "HDR frequency", "setting": "[2]; [9]", "value": "~7", "unit": "%"}]}, {"molecule": "template 2: single-stranded oligonucleotide HDR template with HindIII and BamHI sites, 30-nt homology arms (DNA GGATCCAAGCTT; single-stranded DNA HDR donor oligonucleotide, chemistry not given here)", "values": [{"measurement": "HDR frequency", "setting": "[2]; [9]", "value": 5, "unit": "%"}]}, {"molecule": "template 6: double-stranded HDR template PCR amplified from single-stranded template 5 (sense AAGCTTGGATCC; antisense GGATCCAAGCTT; DNA, phosphodiester; double-stranded PCR-amplified HDR donor)", "values": [{"measurement": "HDR frequency", "setting": "[2]; [9]", "value": "~7", "unit": "%"}]}, {"molecule": "COC(=O)Nc1nc2ccc(C(=O)c3cccs3)cc2[nH]1", "note": "[nocodazole]", "values": [{"measurement": "NHEJ frequency compared to the unsynchronized cells", "setting": "[1]; [7]", "value": "increased the NHEJ frequency slightly"}, {"measurement": "Increase of NHEJ frequency by synchronization", "setting": "[1]; nocodazole vs unsynchronized, 10 ρmol Cas9 RNP", "value": "two-fold"}, {"measurement": "Increase of NHEJ frequency by synchronization", "setting": "[1]; nocodazole vs unsynchronized, 30 ρmol Cas9 RNP", "value": 1.5, "unit": "fold"}, {"measurement": "Enhancement of NHEJ frequency by synchronization", "setting": "[1]; nocodazole vs unsynchronized, 100 ρmol Cas9 RNP", "value": "diminished"}, {"measurement": "NHEJ frequency", "setting": "[1]; 10 ρmol Cas9 RNP", "value": "15-17%"}, {"measurement": "NHEJ frequency", "setting": "[1]; 30 ρmol Cas9 RNP", "value": "35-37%"}, {"measurement": "NHEJ frequency", "setting": "[1]; 100 ρmol Cas9 RNP", "value": "46-49%"}, {"measurement": "HDR frequency relative to the unsynchronized cells", "setting": "[2]; 30 ρmol Cas9 RNP, 50 ρmol HDR template (templates 1-7)", "value": "overall higher HDR frequency"}, {"measurement": "HDR frequency", "setting": "[2]; [8]", "value": 19, "unit": "%"}, {"measurement": "HDR efficiency", "setting": "[2]; nocodazole synchronization, 10 ρmol Cas9 RNP", "value": "9-15%"}, {"measurement": "HDR efficiency", "setting": "[2]; nocodazole synchronization, 30 ρmol Cas9 RNP", "value": "22-28%"}, {"measurement": "HDR efficiency", "setting": "[2]; nocodazole synchronization, 100 ρmol Cas9 RNP", "value": "24-32%"}, {"measurement": "Highest HDR frequency (representative gel of triplicate experiment)", "setting": "[2]; nocodazole synchronization, 100 ρmol of Cas9, 100 ρmol template 1", "value": 31, "unit": "%"}, {"measurement": "Enhancement of NHEJ frequency by nocodazole synchronization", "setting": "[3]; [12]", "value": "more than two-fold"}, {"measurement": "NHEJ frequency", "setting": "[3]; 10 ρmol Cas9 RNP", "value": "20-24%"}, {"measurement": "NHEJ frequency", "setting": "[3]; 30 ρmol Cas9 RNP", "value": "45-47%"}, {"measurement": "NHEJ frequency", "setting": "[3]; 100 ρmol Cas9 RNP", "value": "63-65%"}, {"measurement": "Enhancement of HDR frequency by nocodazole synchronization", "setting": "[4]; [12]", "value": "over six-fold"}, {"measurement": "HDR frequency", "setting": "[4]; 10 ρmol Cas9 RNP", "value": "5-6%"}, {"measurement": "HDR frequency", "setting": "[4]; 30 ρmol Cas9 RNP", "value": "12-17%"}, {"measurement": "HDR frequency", "setting": "[4]; 100 ρmol Cas9 RNP", "value": "24-25%"}, {"measurement": "NHEJ frequency", "setting": "[5]; 30 ρmol Cas9 RNP", "value": 9, "unit": "%"}, {"measurement": "NHEJ frequency", "setting": "[5]; 100 ρmol Cas9 RNP", "value": "28-31%"}, {"measurement": "HDR events", "setting": "[6]", "value": "no HDR event was detected"}, {"measurement": "Enrichment of cells arrested at M phase (DNA content, FACS)", "setting": "HEK293T cells", "value": "two-fold enrichment; also recorded: three-fold enrichment"}]}, {"molecule": "CC[C@H](C)C(=O)O[C@H]1C[C@@H](C)C=C2C=C[C@H](C)[C@H](CC[C@@H]3C[C@@H](O)CC(=O)O3)[C@H]21", "note": "[lovastatin]", "values": [{"measurement": "NHEJ frequency compared to the unsynchronized cells", "setting": "[1]; [10]", "value": "greatly decreased"}, {"measurement": "HDR frequency compared to the unsynchronized cells", "setting": "[2]; [10]", "value": "greatly decreased"}]}, {"molecule": "NC(Cn1ccc(=O)c(O)c1)C(=O)O", "note": "(centres unmarked) [mimosine]", "values": [{"measurement": "NHEJ frequency compared to the unsynchronized cells", "setting": "[1]; [10]", "value": "greatly decreased"}, {"measurement": "HDR frequency compared to the unsynchronized cells", "setting": "[2]; [10]", "value": "greatly decreased"}]}, {"molecule": "B1", "values": [{"measurement": "HDR frequency", "setting": "[2]; [9]", "value": 20, "unit": "%"}]}]}
